ChEMBL document CHEMBL5046269, “Multifunctional P450 Monooxygenase CftA Diversifies the Clifednamide Pool through Tandem C-H Bond Activations” (2022)

What was measured:
Type in all cases: functional
Staphylococcus aureus = test: Antibacterial activity against Staphylococcus aureus ATCC 11632 assessed as inhibition of bacterial growth measured after 18 hrs by CLSI protocol based microbroth dilution method
Bacillus subtilis = test: Antibacterial activity against Bacillus subtilis ATCC 6633 assessed as inhibition of bacterial growth measured after 18 hrs by CLSI protocol based microbroth dilution method
Candida albicans = test: Antifungal activity against Candida albicans ATCC 48130 assessed as inhibition of fungal growth measured after 18 hrs by CLSI protocol based microbroth dilution method
Micrococcus luteus = test: Antibacterial activity against Micrococcus luteus ATCC 10240 assessed as inhibition of bacterial growth measured after 18 hrs by CLSI protocol based microbroth dilution method

Measured: MIC90

CC[C@H]1[C@@H]2C=C[C@@H]3[C@H]4C/C=C\C(=O)NCCC[C@@H]5NC(=O)C(=C5O)C(=O)/C=C/[C@@H]4C[C@@H]3[C@H]2C[C@H]1C
22.4 µM: Staphylococcus aureus | Bacillus subtilis | Candida albicans | Micrococcus luteus
